Reference: patent US20220072022A1, “ANTI-AGING AGENT OR LIFE-EXTENDING AGENT” (StaGen Co., Ltd., priority 2019, published 2022)

How the values were obtained:
[1] = test system: C. elegans wild type strain (N2, Bristrol); assay: Extension of C. elegans (nematode) lifespan by febuxostat, wild type strain (Example 1); assay type: in vivo; conditions: wild type strain N2, febuxostat 10 mg/ml, 20° C., FIG. 2
Procedure: (§1) Extension of lifespan by febuxostat was examined using a wild type strain (N2, Bristrol) and a daf-16 gene (nematode ortholog of human transcription factor FOXO; a typical example of shortened lifespan in nematode variant due to a transcription factor that is suppressed by insulin signals) variant strain (mu86). Both strains were bred at 20° C.
(§2) In order to keep the developmental stage of the strains used for lifespan measurement constant, it was waited until food (Escherichia coli) was exhausted and growth of first instar larvae stopped. The nematode was cut and planted together with agar in a petri dish with food.
(§3) Ampicillin (100 μg/ml) was added to a 6 cm NGM plate (standard medium for nematode culture) to inhibit the growth of the food Escherichia coli strain and its associated metabolism, and OP50 (the food Escherichia coli strain) and FBX were added ([…]).
(§4) When the cut and planted nematodes became adults, they were washed out of the petri dish using M9 buffer and collected. The nematodes were suspended in Eppendorf tubes. An equal amount of bleach solution (a mixture of 4N NaOH, hypochlorous acid solution, and M9 buffer at a ratio of 2:3:5) to the nematode suspension was added and mixed. […]
(§5) Life or death was determined for each individual every other day, and the data was recorded. […]
(§6) The lifespan tracking was completed when it was determined that all nematodes had died.

[2] = test system: C. elegans daf-16 gene variant strain (mu86); assay: Extension of C. elegans (nematode) lifespan by febuxostat, daf-16 variant strain (Example 1); assay type: in vivo
Procedure: as §1, §2, §3, §4, §5, §6

[3] = test system: C. elegans wild type strain (N2, Bristrol); assay: Effect of febuxostat on nematode lifespan, UV-killed Escherichia coli plus kanamycin (Example 3); assay type: in vivo; conditions: N2, febuxostat 5, 10, 20 μg/mL, FIG. 4
Procedure: The effect of febuxostat on lifespan was examined using a wild type strain (N2, Bristrol) of C. elegans as a nematode. In addition, mitochondria of the nematode cultured in the absence and presence of febuxostat were compared under electron microscopy. The culturing method and culturing conditions for nematodes (N2) were almost the same as those in Example 1 except for the method for treating the food added to the medium. Generally, Escherichia coli is added to the NGM plate as food for nematodes; however, when Escherichia coli grows, it may affect metabolites, etc. Therefore, a method of adding the antibiotic ampicillin to stop the growth of Escherichia coli is performed. However, it cannot be completely denied that the presence of ampicillin in the NGM plate had some effect. Therefore, instead of adding ampicillin, Escherichia coli was killed by being irradiated with ultraviolet rays, and kanamycin was further added. In this way, Escherichia coli as food was treated differently from Example 1, and it was checked whether the same experimental results as in Example 1 could be obtained. The concentration of febuxostat added to the NGM plate was 5, 10, 20 μg/mL.

[4] = test system: mitochondria of the muscle of C. elegans (N2); assay: Effect of febuxostat on mitochondrial morphology in nematode muscle, electron microscopy (Example 3); assay type: in vivo; conditions: cultured 18 days in the presence of 20 μg/mL of febuxostat, compared with FBX(−), FIG. 5
Procedure: The effect of febuxostat on lifespan was examined using a wild type strain (N2, Bristrol) of C. elegans as a nematode. In addition, mitochondria of the nematode cultured in the absence and presence of febuxostat were compared under electron microscopy.
On the 18th day of culturing, nematodes were fixed by the following method. An M9 buffer comprising 8% ethanol was dropped on a slide glass, and the nematodes were placed therein and allowed to stand until the nematodes stopped moving (about 5 minutes). Next, a fixing solution was placed on another slide glass, and the nematodes that had stopped moving were transferred to the fixing solution. The fixing solution comprises 2% paraformaldehyde+2% glutaraldehyde/0.1M phosphate buffer (pH 7.4), and was adjusted prior to use.
Subsequently, a 22 G injection needle was used to cut the nematodes in the following procedure.
First, the cranial side was cut from the pharynx, and then amputation was performed around Vulva. In this experiment, in order to observe the mitochondria of the muscle behind Vulva with an electron microscope, only the caudal side was collected and placed in an Eppendorf tube comprising a fixing solution (4° C.)
Observation with an electron microscope was carried out by requesting the Hanaichi UltraStructure Research Institute (Okazaki City, Aichi Prefecture) using an electron microscope HITACHI H-7600 (100 kV).

[5] = test system: C. elegans; conditions: Non-Patent Documents 13 to 16; cited from earlier work

| Compound | lifespan [1] | lifespan compared with the wild type strain ([2]; daf-16 gene variant strain (mu86) with febuxostat) | lifespan ([2]; daf-16 gene variant strain (mu86), febuxostat 10 mg/ml, 20° C., FIG. 3) | lifespan of nematodes [3] | morphology of mitochondria in the muscle [4] | lifespan in C. elegans [5] |
| --- | --- | --- | --- | --- | --- | --- |
| Cc1nc(-c2ccc(OCC(C)C)c(C#N)c2)sc1C(=O)O [febuxostat] | showed an extension of lifespan | did not reach the same length of lifespan as that of the wild type strain | showed an extension of lifespan | lifespan of nematodes is extended | morphology of mitochondria is maintained almost normally |  |
| CN(C)C(=N)N=C(N)N [metformin] |  |  |  |  |  | prolongs the lifespan |
